# Source: patent US11331290B2, “Niclosamide for the treatment of cancer metastasis” (Max-Delbrück-Centrum für Molekulare Medizin in der …, priority 2011, dated 2022)
# Tested on: S100A4 mRNA
# Assay: S100A4 mRNA expression by qRT-PCR in colon cancer cells
# Format: cell-based, human
# Procedure: Total RNA was isolated from 4×10^5 cells plated in a 6-well-plates 24 hour before cells were lyzed with Trizol Reagent (Invitrogen). RNA was extracted with Trizol RNA extraction reagent (Invitrogen) according to the manufacturer's instructions. Quantification of the RNA concentration was performed with Nanodrop (Peqlab) and 50 ng total RNA was reverse transcribed with random hexamers in 10 mM MgCl2; 1× RT-buffer, 250 μM pooled dNTPs, 1 U per μL RNAse inhibitor and 2.5 U per μL MuLV reverse transcriptase (all Applied Biosystems). Reaction occurred at 42° C. for 15 minutes, 99° C. for 5 minutes and subsequent cooling at 5° C. for 5 minutes. The cDNA product was amplified in a total volume of 10 μL in 96-well-plates in the LightCycler 480 (Roche) using the following conditions: 95° C., 10 minutes, followed by 45 cycles of 95° C. for 10 seconds, 61° C. for 30 seconds and 72° C. for 4 seconds. For S100A4 cDNA quantification the following primer and probes were used: forward primer 5′-CTCAGCGCTTCTTCTTTC-3′, reverse primer 5′-GGGTCAGCAGCTCCTTTA-3′, fluorescein isothiocyanate probe 5′-[…]-3′, LCRed640-probe 5′-[…]-3′. For cDNA quantification of the housekeeping gene glucose-6-phosphate dehydrogenase (G6PD) the hG6PDH Roche Kit (Roche Diagnostics, Mannheim, Germany) was used according to manufacturers instructions. Data analysis was performed with LightCycler® 480 Software release 1.5.0 SP3. For each qRT-PCR reaction a mean of the duplicate was calculated. Each mean value of the expressed gene was normalized to the respective mean amount of the G6PD cDNA.
# (A) Determination of the cytotoxicity of niclosamide on HCT116 cells. Cells were treated with increasing concentrations of niclosamide for 24 hours and cell viability was measured. (B) Effect of increasing concentrations of niclosamide on S100A4 expression. HCT116 cells were treated with increasing concentrations of niclosamide for 24 hours. S100A4 expression was determined by quantitative reverse-transcription-polymerase chain reaction (qRT-PCR) and immunoblot. (C) Time-dependency of niclosamide effect on S100A4 expression. HCT116 cells were treated with a single dose of 1 μM niclosamide for 24 hours and S100A4 expression was analyzed by qRT-PCR and immunoblot at indicated time points. Black bar indicates the chosen treatment conditions for further experiments. (D) Effect of daily doses of niclosamide on S100A4 expression. HCT116 cells were treated daily with 1 μM niclosamide and S100A4 expression was analyzed by qRT-PCR and immunoblot. Data is given as mean±SD (n>2). Differences in treated groups were compared with the control group by two-sided one-way analysis of variances and Bonferroni post hoc multiple comparison test.
# (E) Effect of niclosamide in HCT116-vector and HCT116-S100A4 cells. HCT116-vector and HCT116-S100A4 cells were treated with 1 μM niclosamide for 24 hours and S100A4 expression was analyzed by qRT-PCR and immunoblot. Data is given as mean±SD (n>2). Comparison of niclosamide vs. solvent-treated cells was analyzed with Student's t test.
# (A) S100A4 expression under niclosamide treatment. Cells were treated with 1 μM niclosamide for 24 hours. S100A4 expression was analyzed with qRT-PCR and immunoblot. (B) Cell migration under niclosamide treatment. Migration rates of cells treated with 1 μM niclosamide for 24 hours were determined in a Boyden chamber assay values were normalized to solvent-treated SW620 cells. (C) Cell invasion under niclosamide treatment. Cells were seeded onto Matrigel covered transwells and treated with 1 μM niclosamide for 24 hours. Invaded cells in the lower chamber were counted and normalized to solvent-treated SW620 cells. Differences in solvent vs. niclosamide-treated cells were analyzed by Student's t test. Data represent mean±SE of at least two independent experiments each performed in triplicate. (D) Directed migration under niclosamide treatment. Wounds of 300 μM width were set in a 60% confluent monolayer of cells on day 1. […]
smiles,measurement,setting,value
"O=C(Nc1ccc([N+](=O)[O-])cc1Cl)c1cc(Cl)ccc1O [niclosamide, 2′,5-dichloro-4′-nitrosalicylanilide]",S100A4 mRNA,"DLD-1, 1 μM, 24 h, mRNA barely detectable",remained unchanged
same,"S100A4 mRNA expression, mean difference control vs niclosamide","HAB-68mut, 1 μM, 24 h",0.55
same,"S100A4 mRNA expression, mean (relative to HCT116 control)","HAB-68mut, 1 μM, 24 h, control 1.17",0.62
same,"S100A4 mRNA expression, mean (relative to HCT116 control)","HAB-92 wt, 1 μM, 24 h, control 0.03, statistically not significant",0.01
same,"S100A4 mRNA expression, mean difference control vs niclosamide","HAB-92 wt, 1 μM, 24 h, statistically not significant",0.02
same,"S100A4 mRNA, mean %","HCT116, 1 μM daily for 3 days, 24 hours post-treatment, control 101.9%",58.0%
same,"S100A4 mRNA, mean %","HCT116, 1 μM daily for 3 days, 48 hours post-treatment, control 98.1%",44.4%
same,"S100A4 mRNA, mean %","HCT116, 1 μM daily for 3 days, 72 hours post-treatment, control 100.0%",57.9%
same,"S100A4 mRNA, mean % of solvent-treated control","HCT116, 1 μM daily, 24 hours",46.0%
same,"S100A4 mRNA, mean % of solvent-treated control","HCT116, 1 μM daily, 48 hours",44.5%
same,"S100A4 mRNA, mean % of solvent-treated control","HCT116, 1 μM daily, 72 hours",59.5%
same,"S100A4 mRNA expression, mean difference control vs niclosamide","HCT116, 1 μM, 24 h (relative scale)",0.54
same,"S100A4 mRNA expression, mean (relative to HCT116 control)","HCT116, 1 μM, 24 h, control 1.00",0.46
same,"S100A4 mRNA, mean % of solvent-treated control","HCT116, 1 μM, single dose, 18 hours",47.5%
same,"S100A4 mRNA, mean % of solvent-treated control","HCT116, 1 μM, single dose, 24 h",47.4%
same,S100A4 mRNA and protein levels,"HCT116, 1 μM, single dose, after 30-48 hours",returned to the control level
same,"S100A4 mRNA, mean % of solvent-treated control","HCT116, 1.5 μM, 24 h",39.2%
same,"S100A4 mRNA, mean % of solvent-treated control","HCT116, 2 μM, 24 h",39.1%
same,"S100A4 mRNA, mean % of solvent-treated control","HCT116, 2.5 μM, 24 h",36.7%
same,"S100A4 mRNA, mean difference control vs niclosamide","HCT116, 24 hours post-treatment",43.9%
same,"S100A4 mRNA, mean difference control vs niclosamide","HCT116, 48 hours post-treatment",53.7%
same,"S100A4 mRNA, mean difference control vs niclosamide","HCT116, 72 hours post-treatment",42.1%
same,change in S100A4 expression,"HCT116, concentrations below 1 μM, 24 h",No change
same,"S100A4 mRNA, mean difference control vs niclosamide","HCT116-S100A4, 1 μM, 24 h, not statistically significant",104.7%
same,"S100A4 mRNA, mean %","HCT116-S100A4, 1 μM, 24 h, solvent control 717.0%, not statistically significant",612.3%
same,"S100A4 mRNA, mean % of solvent-treated control","HCT116-vector, 1 μM, 24 h",57.8%
same,"S100A4 mRNA, mean difference control vs niclosamide","HCT116-vector, 1 μM, 24 h",42.0%
same,"S100A4 mRNA, mean difference control vs niclosamide","LS174T, 1 μM, 24 h",51.9%
same,"S100A4 mRNA, mean %","LS174T, 1 μM, 24 h, solvent control 65.5%",13.5%
same,"S100A4 mRNA, mean difference control vs niclosamide","SW480, 1 μM, 24 h",35.0%
same,"S100A4 mRNA, mean %","SW480, 1 μM, 24 h, solvent control 41.0%",6.0%
same,"S100A4 mRNA, mean difference control vs niclosamide","SW620, 1 μM, 24 h",68.8%
same,"S100A4 mRNA, mean %","SW620, 1 μM, 24 h, solvent control 100.0%",31.2%
